Data: patent US20110178070A1, “PI3K/mTOR INHIBITORS” (TAKEDA PHARMACEUTICAL COMPANY LIMITED, priority 2008, published 2011)

Biological target: mTOR (Homo sapiens, UniProt P42345)
Assay: Z-Lyte biochemical assay, inhibition of mTOR (Example A);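 note: synthetic Ser/Thr peptide with coumarin–fluorescein FRET pair, phosphorylation protects from protease cleavage, coumarin/fluorescein emission ratio after 400 nm excitation, 1 h kinase reaction, 10-point 3-fold titrations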
Conditions: IC50 (nM) mTOR, Table 1; 10 μM ATP
Experimental: The inhibitory property of a compound relative to mTOR catalysis was determined by using the Z-Lyte™ biochemical assay conducted by Invitrogen Corporation (Madison, Wis.), which employs a fluorescence-based, coupled-enzyme format and is based on the differential sensitivity of phosphorylated and non-phosphorylated peptides to proteolytic cleavage. The peptide substrate is labeled with two fluorophores—one at each end—that make up a FRET pair.
In the primary reaction, the kinase transfers the gamma-phosphate of ATP to a single tyrosine, serine or threonine residue in a synthetic FRET-peptide. In the secondary reaction, a site-specific protease recognizes and cleaves non-phosphorylated FRET-peptides. Phosphorylation of FRET-peptides suppresses cleavage by the Development Reagent. Cleavage disrupts FRET between the donor (i.e., coumarin) and acceptor (i.e., fluorescein) fluorophores on the FRET-peptide, whereas uncleaved, phosphorylated FRET-peptides maintain FRET. A ratio metric method, which calculates the ratio (the Emission Ratio) of donor emission to acceptor emission after excitation of the donor fluorophore at 400 nm, is used to quantitate reaction progress, as shown in the equation below.
A significant benefit of this ratio metric method for quantitating reaction progress is the elimination of well-to-well variations in FRET-peptide concentration and signal intensities. […] Both cleaved and uncleaved FRET-peptides contribute to the fluorescence signals and therefore to the Emission Ratio. The extent of phosphorylation of the FRET-peptide can be calculated from the Emission Ratio.
Recombinant human mTOR enzyme (amino acids 1360-2549), GST-tagged, expressed in and purified from insect cells (Invitrogen Corp. Cat. #PV4753; also known as FRAP1) was used for the assay. The 2×FRAP1 (mTOR)/Ser/Thr 11 Peptide Mixture (Invitrogen Corp.) was prepared in buffer containing 50 mM HEPES pH 7.5, 0.01% BRIJ-35, 10 mM MnCl2, 1 mM EGTA, 2 mM DTT, and 0.02% NaN3. The final 10 μL Kinase Reaction consisted of 7.2-58.1 ng FRAP1 (mTOR) and 2 μM Ser/Thr 11 Peptide in buffer containing 50 mM HEPES pH 7.5, 0.01% BRIJ-35, 5 mM MgCl2, 5 mM MnCl2, 1 mM EGTA, 1 mM DTT, and 0.01% NaN3.
Test compounds are screened in 1% DMSO (final) in the well. For 10 point titrations, 3-fold serial dilutions are conducted from the starting concentration. The Ser/Thr 11 Peptide/Kinase Mixture was diluted to a 2× working concentration in buffer containing 50 mM HEPES pH 7.5, 0.01% BRIJ-35, 10 mM MnCl2, 1 mM EGTA, 2 mM DTT, and 0.02% NaN3. The ATP solution was diluted to a 4× working concentration in buffer containing 50 mM HEPES pH 7.5, 0.01% BRIJ-35, 10 mM MgCl2, and 1 mM EGTA.
After the 1 hour Kinase Reaction incubation, 5 μL of a 1:16 dilution of Development Reagent B was added, and the development reaction was allowed to proceed for an additional 1 hour at room temperature. The assay plate was then read on a fluorescence plate reader and the data analyzed as outlined above.
IC50 values were calculated by non-linear least squares curve fitting using XLfit from IDBS to fit the results to model number 205 (sigmoidal dose-response model).

mTOR, sequence (P42345 1360-2549): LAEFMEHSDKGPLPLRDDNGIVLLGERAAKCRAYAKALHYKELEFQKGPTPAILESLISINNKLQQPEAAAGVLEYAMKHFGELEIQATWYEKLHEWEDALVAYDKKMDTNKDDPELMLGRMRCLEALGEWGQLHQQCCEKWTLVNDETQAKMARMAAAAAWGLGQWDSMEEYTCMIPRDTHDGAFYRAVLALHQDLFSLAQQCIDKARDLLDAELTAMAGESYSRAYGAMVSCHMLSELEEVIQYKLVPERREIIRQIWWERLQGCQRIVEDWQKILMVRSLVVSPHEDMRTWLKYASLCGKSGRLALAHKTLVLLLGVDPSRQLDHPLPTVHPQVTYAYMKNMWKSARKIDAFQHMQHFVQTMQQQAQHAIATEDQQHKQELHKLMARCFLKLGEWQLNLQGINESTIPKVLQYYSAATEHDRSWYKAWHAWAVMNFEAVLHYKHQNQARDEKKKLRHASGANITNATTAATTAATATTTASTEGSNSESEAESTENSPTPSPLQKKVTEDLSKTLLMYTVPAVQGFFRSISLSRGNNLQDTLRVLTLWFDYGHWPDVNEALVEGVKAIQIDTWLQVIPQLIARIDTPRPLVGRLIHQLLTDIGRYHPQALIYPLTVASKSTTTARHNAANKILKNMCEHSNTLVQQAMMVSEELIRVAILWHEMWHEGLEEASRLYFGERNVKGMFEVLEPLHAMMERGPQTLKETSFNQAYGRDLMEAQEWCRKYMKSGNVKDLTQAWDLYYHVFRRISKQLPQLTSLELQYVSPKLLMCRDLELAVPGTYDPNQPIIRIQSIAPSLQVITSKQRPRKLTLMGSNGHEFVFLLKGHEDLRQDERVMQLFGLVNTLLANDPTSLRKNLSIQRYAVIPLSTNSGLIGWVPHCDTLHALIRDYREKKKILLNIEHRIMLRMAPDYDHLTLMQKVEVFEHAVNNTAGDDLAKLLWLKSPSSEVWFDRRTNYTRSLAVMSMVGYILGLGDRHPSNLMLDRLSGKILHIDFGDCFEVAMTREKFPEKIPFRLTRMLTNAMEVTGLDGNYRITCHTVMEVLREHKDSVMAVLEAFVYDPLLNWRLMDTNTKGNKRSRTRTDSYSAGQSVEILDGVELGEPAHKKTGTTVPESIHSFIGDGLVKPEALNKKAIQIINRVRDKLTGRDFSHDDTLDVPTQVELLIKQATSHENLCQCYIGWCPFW

Compound | IC50
CC(=O)Nc1nc2ccc(-c3ccc4[nH]cc(C=O)c4c3)cc2s1 [Example 15, N-(6-(3-Formyl-1H-indol-5-yl)benzo[d]thiazol-2-yl)acetamide] | < 100 nM
CC(=O)Nc1ccc(-c2ccc3nc(NC(C)=O)sc3n2)cn1 [Example 4, N-(5-(6-Acetamidopyridin-3-yl)thiazolo[5,4-b]pyridin-2-yl)acetamide] | 100 to 1000 nM
CC(=O)Nc1nc2ccc(-c3ccc4[nH]ncc4c3)nc2s1 [Example 3, N-(5-(1H-Indazol-5-yl)thiazolo[5,4-b]pyridin-2-yl)acetamide] | 100 to 1000 nM
CC(=O)Nc1nc2ccc(-c3ccc(N)cc3)cc2s1 [Example 13, N-(6-(4-Aminophenyl)benzo[d]thiazol-2-yl)acetamide] | > 1000 nM
CC(=O)Nc1nc2ccc(-c3cnc(Cl)c(NS(=O)(=O)c4ccccc4)c3)nc2s1 [Example 7, N-(5-(6-Chloro-5-(phenylsulfonamido)pyridin-3-yl)thiazolo[5,4-b]pyridin-2-yl)acetamide] | < 100 nM
CC(=O)Nc1nc2ccc(-c3ccc4[nH]cc(C(N)=O)c4c3)cc2s1 [Example 17, 5-(2-Acetamidobenzo[d]thiazol-6-yl)-1H-indole-3-carboxamide] | > 1000 nM
CC(=O)Nc1nc2ccc(-c3cccnc3)cc2s1 [Example 11, N-(6-(Pyridin-3-yl)benzo[d]thiazol-2-yl)acetamide] | 100 to 1000 nM
CC(=O)Nc1nc2ccc(-c3ccc4nccn4c3)nc2s1 [Example 22, N-(5-(Imidazo[1,2-a]pyridin-6-yl)thiazolo[5,4-b]pyridin-2-yl)acetamide] | 100 to 1000 nM
CS(=O)(=O)Nc1cc(-c2ccc3nc(NC(=O)C4CC4)sc3n2)cnc1Cl [Example 9, N-(5-(6-Chloro-5-(methylsulfonamido)pyridin-3-yl)thiazolo[5,4-b]pyridin-2-yl)cyclopropanecarboxamide] | < 100 nM
CC(=O)Nc1nc2ccc(-c3ccc4[nH]ccc4c3)cc2s1 [Example 12, N-(6-(1H-Indol-5-yl)benzo[d]thiazol-2-yl)acetamide] | > 1000 nM
CC(=O)Nc1nc2ccc(-c3ccccc3)cc2s1 [Example 10, N-(6-Phenylbenzo[d]thiazol-2-yl)acetamide] | > 1000 nM
CC(=O)Nc1nc2ccc(-c3cnc(Cl)c(NS(C)(=O)=O)c3)nc2s1 [Example 8, N-(5-(6-Chloro-5-(methylsulfonamido)pyridin-3-yl)thiazolo[5,4-b]pyridin-2-yl)acetamide] | < 100 nM
CNC(=O)c1ccc(-c2ccc3nc(NC(C)=O)sc3n2)cn1 [Example 6, 5-(2-Acetamidothiazolo[5,4-b]pyridin-5-yl)-N-methylpicolinamide] | 100 to 1000 nM
CC(=O)Nc1nc2ccc(-c3ccc(N)cc3C(F)(F)F)cc2s1 [Example 19, N-(6-(4-Amino-2-(trifluoromethyl)phenyl)benzo[d]thiazol-2-yl)acetamide] | > 1000 nM
CC(=O)Nc1nc2ccc(-c3cnc(N)cn3)cc2s1 [Example 20, N-(6-(5-Aminopyrazin-2-yl)benzo[d]thiazol-2-yl)acetamide] | 100 to 1000 nM
CC(=O)Nc1nc2ccc(-c3ccc4[nH]ccc4c3)nc2s1 [Example 2, N-(5-(1H-Indol-5-yl)thiazolo[5,4-b]pyridin-2-yl)acetamide] | 100 to 1000 nM
CC(=O)Nc1nc2ccc(-c3cnc(Cl)c(NS(=O)(=O)c4ccccc4)c3)cc2s1 [Example 18, N-(6-(6-Chloro-5-(phenylsulfonamido)pyridin-3-yl)benzo[d]thiazol-2-yl)acetamide] | < 100 nM
CC(=O)Nc1nc2ccc(-c3ccc(C#N)nc3)nc2s1 [Example 23, N-(5-(6-Cyanopyridin-3-yl)thiazolo[5,4-b]pyridin-2-yl)acetamide] | 100 to 1000 nM

Second part, the molecule after the results:

IC50 | Compound
100 to 1000 nM | CC(=O)Nc1ccc(-c2ccc3nc(NC(C)=O)sc3c2)cc1 [Example 39, N-(4-(2-Acetamidobenzo[d]thiazol-6-yl)phenyl)acetamide]
100 to 1000 nM | CONC(=O)c1ccc(-c2ccc3nc(NC(C)=O)sc3n2)cc1 [Example 30, 4-(2-Acetamidothiazolo[5,4-b]pyridin-5-yl)-N-methoxybenzamide]
> 1000 nM | CONC(=O)c1cccc(-c2ccc3nc(NC(C)=O)sc3n2)c1 [Example 27, 3-(2-Acetamidothiazolo[5,4-b]pyridin-5-yl)-N-methoxybenzamide]
> 1000 nM | CNC(=O)c1cccc(-c2ccc3nc(NC(C)=O)sc3c2)c1 [Example 40, 3-(2-Acetamidobenzo[d]thiazol-6-yl)-N-methylbenzamide]
< 100 nM | CC(=O)Nc1nc2ccc(-c3cnc(Cl)c(NS(C)(=O)=O)c3)cc2s1 [Example 48, N-(6-(6-Chloro-5-(methylsulfonamido)pyridin-3-yl)benzo[d]thiazol-2-yl)acetamide]
< 100 nM | CC(=O)Nc1nc2ccc(-c3cnc4cc[nH]c4c3)nc2s1 [Example 25, N-(5-(1H-Pyrrolo[3,2-b]pyridin-6-yl)thiazolo[5,4-b]pyridin-2-yl)acetamide]
100 to 1000 nM | CC(=O)Nc1ccc(-c2ccc3nc(NC(C)=O)sc3n2)cc1 [Example 36, N-(5-(4-Acetamidophenyl)thiazolo[5,4-b]pyridin-2-yl)acetamide]
< 100 nM | CC(=O)Nc1nc2ccc(-c3ccc(C(N)=O)cc3)nc2s1 [Example 38, 4-(2-Acetamidothiazolo[5,4-b]pyridin-5-yl)benzamide]
100 to 1000 nM | CC(=O)Nc1nc2ccc(-c3ccc4c(c3)CC(=O)N4)nc2s1 [Example 31, N-(5-(2-oxoindolin-5-yl)thiazolo[5,4-b]pyridin-2-yl)acetamide]
100 to 1000 nM | CC(=O)Nc1nc2ccc(-c3ccc(C(=O)NC4CC4)cc3)nc2s1 [Example 37, 4-(2-Acetamidothiazolo[5,4-b]pyridin-5-yl)-N-cyclopropylbenzamide]
> 1000 nM | CC(=O)Nc1nc2ccc(-c3cnc(Cl)c(NS(=O)(=O)C4CC4)c3)nc2s1 [Example 49, N-(5-(6-Chloro-5-(cyclopropanesulfonamido)pyridin-3-yl)thiazolo[5,4-b]pyridin-2-yl)acetamide]
< 100 nM | CC(=O)Nc1nc2ccc(-c3cnc4[nH]ccc4c3)nc2s1 [Example 24, N-(5-(1H-Pyrrolo[2,3-b]pyridin-5-yl)thiazolo[5,4-b]pyridin-2-yl)acetamide]
> 1000 nM | CC(=O)Nc1nc2ccc(-c3ccccc3N)nc2s1 [Example 34, N-(5-(2-Aminophenyl)thiazolo[5,4-b]pyridin-2-yl)acetamide]
< 100 nM | CNC(=O)c1ccc(-c2ccc3nc(NC(C)=O)sc3n2)cc1 [Example 35, 4-(2-Acetamidothiazolo[5,4-b]pyridin-5-yl)-N-methylbenzamide]
< 100 nM | CC(=O)Nc1nc2ccc(-c3ccc(-c4nnc[nH]4)cc3)nc2s1 [Example 42, N-(5-(4-(4H-1,2,4-Triazol-3-yl)phenyl)thiazolo[5,4-b]pyridin-2-yl)acetamide]
> 1000 nM | CC(=O)Nc1nc2ccc(-c3ccncc3)nc2s1 [Example 33, N-(5-(Pyridin-4-yl)thiazolo[5,4-b]pyridin-2-yl)acetamide]
< 100 nM | CCS(=O)(=O)Nc1cc(-c2ccc3nc(NC(C)=O)sc3n2)cnc1Cl [Example 47, N-(5-(6-Chloro-5-(ethylsulfonamido)pyridin-3-yl)thiazolo[5,4-b]pyridin-2-yl)acetamide]
